A word on the half-life: it is the time needed for the level to fall by half in the phase considered.

One series relates to rats. The settings on record: oral administration, Sakamoto, et al, Chem. Pharm. Bull., 1985, 33, 4870; cited from earlier work.
A short description of another series: in vitro. Type of series: in vitro ADME. The note with it: rat, plasma. As for the experimental part: The process of hydrolysis of the dioxolenylmethyl carbamate of 3,4-dimethoxyphenethylamine was studied by measuring the formation of dimethoxyphenethylamine at 37° C. in neat rat plasma. The reaction was initiated by adding a dimethyl sulfoxide (DMSO) solution of the carbamate to the reaction medium pre-equilibrated at 37° C. in a thermostated water bath. The initial concentrations of the carbamate in rat plasma was 4.3×10^-3 M and the concentration of DMSO was 10%. Samples (100 μL of acetonitrile, vortex mixed for 30 seconds to precipitate the plasma proteins, and centrifuged at 10,000 X g for 5 minutes. The supematants were injected directly and analyxed by HPLC. The HPLC column used was a 10 cm spheri-5 RP-18 column combined with a similar 3 cm guard column. The mobile phase used for the analysis of dimethoxyphenethylamine was 30% v/v of acetonitrile in water containing 0.5 mL/L of 85% phosphoric acid and 0.5 mL/L of triethylamine at a flow rate of 2 mL per minute. The concentration was measured at 280 nm using a variable wave length UV detector. The retention time of dimethoxyphenethylamine under these conditions was 5.8 minutes.

Turning to `CCn1cc(C(=O)O)c(=O)c2cc(F)c(N3CCN(Cc4oc(=O)oc4C)CC3)cc21` [alkylated nofloxacin], the “regeneration of the parent drug” value with rats is listed as “regenerated the parent drug”. `COc1ccc(CCNC(=O)OCc2oc(=O)oc2C)cc1OC` [5'-methyl-2'-oxo-1',3'-dioxol-4'-enyl-4'-methylcarbamoyl-3,4-dimethoxyphenethylamine]: the half-life at 4300 µM in the series “in vitro” turned out to be 11 min.
